“Also recorded” adds a separate entry of the source.
target: T1, enoyl-ACP reductase (recombinant FabI) (Escherichia coli, UniProt P0AEK4); assay: in vitro binding activity assay (FabI enzyme activity, oxidation rate of NADH to NAD+ at 340 nm); type: biochemical, E. coli; details: PBDEs 0.014-10 μM incubated with 100 nM recombinant FabI on ice for 60 minutes
T1 construct: His; made in house; host or cells: E. coli
Description: The in vitro binding activity assay was as follows: overexpression of His-labeled FabI in the E. coli lysate was prepared. When the bacterial optical density (OD600) reached 0.6, the expression was induced overnight with 1 mm IPTG at 16° C. Then, the bacteria were collected and washed once with PBS. The bacteria were lysed in the lysis buffer containing 500 mM NaCl, 10 mm Tris HCl and 0.1% NP-40 (pH=8.5). FabI was purified from the supernatant with Ni-NTA agarose (Qiagen) and centrifuged at 14000 g for 30 min. The resin containing Ni-NTA was transferred to a Poly-Prep column (Bio-Red) and equilibrated twice with washing buffer (50 mm PBS, pH 8.2, 300 mM NaCl and 10 mm imidazole). After incubation with FabI lysate at 4° C. for 30 minutes, the resin was washed twice with a washing buffer, and the FabI protein was eluted with a buffer containing 50 mm PBS, pH 8.2, 300 mM NaCl and 250 mm imidazole. 300 μM butyl coenzyme A was added and followed by adding the mixture of 100 nM recombinant FabI, 400 μM NADH and 40 μM NAD+. The oxidation rate of NADH to NAD+ was measured every 2 minutes with a microplate reader at 340 nm. In order to determine the inhibition ability of PBDEs derivatives to the FabI enzyme activity, PBDEs with different concentrations (0.014-10 μM) were incubated with 100 nM recombinant FabI on ice for 60 minutes, and then the oxidation rate of NADH to NAD+ was determined.

T1 sequence (P0AEK4 whole entry): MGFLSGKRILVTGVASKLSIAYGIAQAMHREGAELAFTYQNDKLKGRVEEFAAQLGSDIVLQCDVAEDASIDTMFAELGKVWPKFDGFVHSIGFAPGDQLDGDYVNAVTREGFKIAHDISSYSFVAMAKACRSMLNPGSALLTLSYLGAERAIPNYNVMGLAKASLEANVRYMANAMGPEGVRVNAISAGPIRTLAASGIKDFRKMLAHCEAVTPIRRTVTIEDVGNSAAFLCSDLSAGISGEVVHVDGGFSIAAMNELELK

Structure (SMILES) | in vitro measurement of the binding activity
Oc1c(Oc2ccc(Br)cc2Br)cc(Br)c(Br)c1Br [2OHBDE123] | No inhibition; also recorded: No inhibit
COc1ccc(Oc2ccc(Br)cc2Br)c(Br)c1 [4MeOBDE17] | No inhibition; also recorded: No inhibit
Oc1cc(Br)c(Oc2ccc(Br)cc2Br)cc1Br [4OHBDE49] | able to inhibit; also recorded: inhibition
COc1cc(Oc2ccc(Br)cc2Br)c(Br)cc1Br [5MeOBDE47] | No inhibition; also recorded: No inhibit
COc1cc(Br)cc(Br)c1Oc1ccccc1Br [6MeOBDE17] | No inhibition; also recorded: No inhibit
COc1cc(Br)cc(Br)c1Oc1ccc(Br)cc1Br [6MeOBDE47] | No inhibition; also recorded: No inhibit
COc1cc(Br)c(Br)c(Br)c1Oc1ccc(Br)cc1Br [6MeOBDE85] | No inhibition; also recorded: No inhibit
COc1c(Br)cc(Br)c(Br)c1Oc1ccc(Br)cc1Br [6MeOBDE90] | No inhibition; also recorded: No inhibit
Oc1cc(Br)cc(Br)c1Oc1ccccc1Br [6OHBDE17] | Inhibit
Oc1cc(Br)cc(Br)c1Oc1ccc(Br)cc1Br [6OHBDE47] | Inhibit
Oc1c(Br)cc(Br)c(Br)c1Oc1ccc(Br)cc1Br [6OHBDE90] | Inhibit
Oc1c(Br)c(Br)c(Br)c(Br)c1Oc1ccc(Br)cc1Br [6OHBDE137] | Inhibit
Oc1cc(Cl)ccc1Oc1ccc(Cl)cc1Cl [TCS, Triclosan, reference compound] | Inhibit

Source: patent publication US11908550B2, “Method for determining different PBDEs derivatives from their response to activities of enoyl-ACP reductase” (Nanjing University, priority 2020, dated 2024)
